## N#CC(C#N)(CCCSC(F)(F)F)CC(F)(F)C(F)(F)C(F)(F)C(F)(F)C(F)(F)F
  melting point: 88 to 90 °C

Reference: US20100215777A1, “Malononitrile Compounds” (BASF SE, priority 2006, published 2010)
